Assay results: paper PMC12323621, “Exploring the antimicrobial activity of pantothenamides against uropathogenic Escherichia coli” (Microbiology Spectrum, 2025)

Key:
UPEC strain CFT073 [1] = experiment: Antimicrobial susceptibility assay, UPEC grown in MOPS-glycerol; type: cell-based, Escherichia coli; details: UPEC CFT073 grown in MOPS-glycerol, 24 h, ± standard error; for MIC: Escherichia coli
Excerpt: Unless otherwise noted, all reagents were obtained from commercial sources. BAP, 1, and N5-Pan analogs were synthesized according to previously reported procedures ([31], [53]). Urine was self-collected from adult males and females (not menstruating) between 24 and 57 years old (recruitment was open to donors 18–65 years old), who had not used anti-infectives or cranberry products for at least 7 days prior to collection. The collection protocol was approved by the Johns Hopkins University Institutional Review Boards under IRB study NA_00085130. Informed, written consent was obtained from all participants prior to collection. Urine was collected from at least 7 participants over 14 days, stored at 4°C upon collection, and then pooled, filter-sterilized, and frozen at −20°C. Urine Batch A included five male and three female donors with an average age of 33 years (range: 24–57). Urine Batch B included four male and five female donors with an average age of 26 years (range: 24–43). Samples from two donors (donations made at least 30 days apart) were included in both Batch A and Batch B. Urine Batch C included four male and three female donors with an average age of 27 years (range: 24–36). Urine Batch D included four male and three female donors with an average age of 27 years (range: 25–35). Solid urine agar plates were prepared by supplementing cooled 1.5% (wt/vol) agar with filter-sterilized urine in a 4:1 ratio. Liquid MOPS-glycerol was prepared by adding 10 × 3-(N-morpholino)propanesulfonic acid (MOPS) Buffer (Teknova) to water to a final 1× concentration, 1.32 mM K2HPO4, and 0.4% (vol/vol) glycerol and then filter-sterilizing. Unless otherwise noted, all media were supplemented with freshly prepared 20 µM FeSO4. OD600 analyses were performed on Mettler-Toledo UV5Bio UV/Visible spectrophotometer (Columbus, Ohio, USA). For antimicrobial studies, uropathogenic E. coli strain CFT073 (ATCC: BAA-2503) was provided by Kevin Schwartz from the lab of Rodney Welch. All manipulation of UPEC was conducted in a certified biosafety level 2 (BSL-2) laboratory while using BSL-2-associated safety procedures. Antimicrobial data were collected on a Biotek Epoch 2 microplate reader or a Biotek Synergy Neo 2 microplate reader. For metabolic stability studies, losartan potassium (PHR1602), used as an internal standard, was bought from Millipore Sigma (Burlington, MA). Methanol (A456-4) and acetonitrile (A955-4) were purchased from Fisher Chemical (Pittsburgh, PA). Water (9831-03) was purchased from JT Baker (Philipsburg, NJ). Dimethyl sulfoxide (DMSO)(154938-500mL) was purchased from Sigma Aldrich (St. Louis, MO). Mouse plasma (WT) was purchased from Innovative Research (Novi, MI). Mouse liver microsomes (M1000) were purchased from XenoTech LLC (Kansas City, KS).
All antimicrobial susceptibility assays were conducted as previously described using an aseptic technique with some modification ([7]). Briefly, 3–5 isolated colonies of CFT073 on LB agar or pooled urine agar were inoculated into 3 mL of liquid MOPS-glycerol medium or pooled urine, respectively, and grown overnight with shaking at 37°C. Saturated cultures were diluted 1:50 in fresh medium and grown to an OD600 of 0.4. These exponential phase cultures were then diluted 1:1,000 into fresh medium to yield the experimental inoculum, which was mixed 1:1 with medium containing 1 or N5-Pan analog at twice the desired final concentration in 96-well plates. The final concentration of bacteria in each well was approximately 10^5 CFU/mL in a final volume of 200 µL. The concentration ranges of compounds evaluated in MOPS-glycerol were: 1 (0–312.5 μM), 2 (0–100 μM), 3 (0–500 μM), 4–5 (0–2,000 μM), 6–7 (0–100 μM), and 8–12 (0-2,000 μM). Analogs 1, 6, and 7 were evaluated over a range of 0–4,000 μM in four batches of pooled human urine. The OD600 was monitored for 24 h (MOPS-glycerol) or 16 h (pooled urine) at 37°C with periodic shaking. […]

UPEC strain CFT073 [2] = experiment: Checkerboard analysis of BAP with pantothenamide in pooled human urine; type: cell-based, Escherichia coli; details: combination with BAP, UPEC in urine batch B
Procedure: As previously described ([7]), an inoculum of 10^5 CFU/mL CFT073 was prepared in pooled human urine Batch B (described above). Cells (100 µL) were added 1:1 to a 96-well plate containing varied combinations of BAP and 1 or N5-Pan analog at 2× the final concentration (100 µL). The OD600 was recorded at 37°C for 16 h with intermittent shaking. Fractional growth was calculated relative to the no drug control at 6 h. Experiments were performed in biological triplicate.
Fractional inhibitory concentration indices (FICI) were determined as previously described ([7], [8]) and calculated using equation 2:
FICI=FICA+FICB=([A]/MICA)+([B]/MICB)
MICA and MICB are the lowest [A] or [B], respectively, required to suppress 90% of the bacterial growth. FICA was calculated as [A] in the presence of B for a combination resulting in <10% growth, divided by MICA. FICB was calculated as [B] in the presence of A for a combination resulting in <10% growth, divided by MICB. Isobolograms were prepared from the checkerboard analysis by plotting FIC for BAP and 1 or 6 over the range of BAP concentrations tested in combination with 1 or 6. Points falling below the line of additivity indicate potentiation of activity. See Fig. S6 for the visual representation of the method of assembling isobolograms.

SMILES	MIC (UPEC strain CFT073 [1])	MIC MOPS-glycerol (UPEC strain CFT073 [1])	effect of BAP on activity (isobologram analysis) (UPEC strain CFT073 [2])	Fractional inhibitory concentration index (FICI) (UPEC strain CFT073 [2]; range across experiments)
CCCCCNC(=O)CCNC(=O)[C@H](O)C(C)(C)CO [compound 1, N-pentylpantothenamide, reference compound]	2.44 µM	2.44 ± 0.00 µM	potentiates the activity	–
CCCCCNC(=O)CNC(=O)[C@H](O)C(C)(C)CO [compound 6, N5-α-pantothenamide]	6.25 µM	6.25 ± 0.00 µM	potentiates the activity	0.5–1.25
